Results as given in ChEMBL document CHEMBL4619795, “Establishing the Structure-Activity Relationship of Daptomycin” (ACS Med Chem Lett, 2020).

What was measured:
Assay type in all cases: functional
Enterococcus [1] = assay: Antibacterial activity against Enterococcus 60 assessed as bacterial growth inhibition in presence of 50 ug/ml calcium ions by CLSI protocol based broth microdilution method
Staphylococcus aureus [2] = assay: Antibacterial activity against methicillin-resistant Staphylococcus aureus 14 assessed as bacterial growth inhibition in presence of 50 ug/ml calcium ions by CLSI protocol based broth microdilution method
Staphylococcus aureus [3] = assay: Antibacterial activity against methicillin-resistant Staphylococcus aureus 88 assessed as bacterial growth inhibition in presence of 50 ug/ml calcium ions by CLSI protocol based broth microdilution method
Enterococcus faecalis [4] = assay: Antibacterial activity against Enterococcus faecalis ATCC 29212 assessed as bacterial growth inhibition in presence of 50 ug/ml calcium ions by CLSI protocol based broth microdilution method
Staphylococcus aureus [5] = assay: Antibacterial activity against Staphylococcus aureus ATCC 29213 assessed as bacterial growth inhibition in presence of 50 ug/ml calcium ions by CLSI protocol based broth microdilution method
Staphylococcus aureus [6] = assay: Antibacterial activity against methicillin-resistant Staphylococcus aureus 11 assessed as bacterial growth inhibition in presence of 50 ug/ml calcium ions by CLSI protocol based broth microdilution method
Enterococcus faecalis [7] = assay: Antibacterial activity against Streptococcus faecalis assessed as bacterial growth inhibition in presence of 50 ug/ml calcium ions by CLSI protocol based broth microdilution method
Enterococcus [8] = assay: Antibacterial activity against Enterococcus 6 assessed as bacterial growth inhibition in presence of 50 ug/ml calcium ions by CLSI protocol based broth microdilution method
Staphylococcus aureus [9] = assay: Antibacterial activity against methicillin-resistant Staphylococcus aureus 86 assessed as bacterial growth inhibition in presence of 50 ug/ml calcium ions by CLSI protocol based broth microdilution method

| SMILES | MIC (Enterococcus [1]) | MIC (Staphylococcus aureus [2]) | MIC (Staphylococcus aureus [3]) | MIC (Enterococcus faecalis [4]) | MIC (Staphylococcus aureus [5]) | MIC (Staphylococcus aureus [6]) | MIC (Enterococcus faecalis [7]) | MIC (Enterococcus [8]) | MIC (Staphylococcus aureus [9]) |
| --- | --- | --- | --- | --- | --- | --- | --- | --- | --- |
| CCCCCCCCCC(=O)N[C@@H](Cc1c[nH]c2ccccc12)C(=O)N[C@@H](CC(N)=O)C(=O)N[C@@H](C)C(=O)N[C@@H]1C(=O)NCC(=O)N[C@@H](CCCN)C(=O)N[C@@H](CC(=O)O)C(=O)N[C@H](C)C(=O)N[C@@H](CC(=O)O)C(=O)NCC(=O)N[C@H](CO)C(=O)N[C@@H]([C@@H](C)CC(=O)O)C(=O)N[C@@H](CC(=O)c2ccccc2N)C(=O)O[C@@H]1C | ≥ 32 µg/mL | ≥ 32 µg/mL | 16 µg/mL | ≥ 32 µg/mL | 16 µg/mL | ≥ 32 µg/mL | ≥ 32 µg/mL | ≥ 32 µg/mL | 16 µg/mL |
| CCCCCCCCCC(=O)N[C@@H](Cc1c[nH]c2ccccc12)C(=O)N[C@@H](CC(N)=O)C(=O)N[C@@H](CC(=O)O)C(=O)N[C@@H]1C(=O)NCC(=O)N[C@@H](CCCNC(=N)N)C(=O)N[C@@H](CC(=O)O)C(=O)N[C@H](C)C(=O)N[C@@H](CC(=O)O)C(=O)NCC(=O)N[C@H](CO)C(=O)N[C@@H]([C@@H](C)CC(=O)O)C(=O)N[C@@H](CC(=O)c2ccccc2N)C(=O)O[C@@H]1C | 16 µg/mL | 16 µg/mL | 1 µg/mL | ≥ 32 µg/mL | 2 µg/mL | 8 µg/mL | 8 µg/mL | 32 µg/mL | 2 µg/mL |
| CCCCCCCCCC(=O)N[C@@H](Cc1c[nH]c2ccccc12)C(=O)N[C@@H](CC(N)=O)C(=O)N[C@@H](CC(=O)O)C(=O)N[C@@H]1C(=O)NCC(=O)N[C@@H](Cc2c[nH]c3ccccc23)C(=O)N[C@@H](CC(=O)O)C(=O)N[C@H](C)C(=O)N[C@@H](CC(=O)O)C(=O)NCC(=O)N[C@H](CO)C(=O)N[C@@H]([C@@H](C)CC(=O)O)C(=O)N[C@@H](CC(=O)c2ccccc2N)C(=O)O[C@@H]1C | ≥ 32 µg/mL | 1 µg/mL | 2 µg/mL | ≥ 32 µg/mL | 4 µg/mL | 2 µg/mL | 2 µg/mL | ≥ 32 µg/mL | 4 µg/mL |
| CCCCCCCCCC(=O)N[C@@H](Cc1c[nH]c2ccccc12)C(=O)N[C@@H](CC(N)=O)C(=O)N[C@@H](CC(=O)O)C(=O)N[C@@H]1C(=O)NCC(=O)N[C@@H](CSSC[C@@H]2NC(=O)CNC(=O)[C@@H](NC(=O)[C@H](CC(=O)O)NC(=O)[C@H](CC(N)=O)NC(=O)[C@H](Cc3c[nH]c4ccccc34)NC(=O)CCCCCCCCC)[C@@H](C)OC(=O)[C@H](CC(=O)c3ccccc3N)NC(=O)[C@H]([C@@H](C)CC(=O)O)NC(=O)[C@@H](CO)NC(=O)CNC(=O)[C@H](CC(=O)O)NC(=O)[C@@H](C)NC(=O)[C@H](CC(=O)O)NC2=O)C(=O)N[C@@H](CC(=O)O)C(=O)N[C@H](C)C(=O)N[C@@H](CC(=O)O)C(=O)NCC(=O)N[C@H](CO)C(=O)N[C@@H]([C@@H](C)CC(=O)O)C(=O)N[C@@H](CC(=O)c2ccccc2N)C(=O)O[C@@H]1C | 16 µg/mL | 4 µg/mL | 16 µg/mL | 16 µg/mL | 16 µg/mL | 8 µg/mL | 4 µg/mL | 16 µg/mL | 8 µg/mL |
| CCCCCCCCCC(=O)N[C@@H](Cc1c[nH]c2ccccc12)C(=O)N[C@@H](CC(N)=O)C(=O)N[C@@H](CC(=O)O)C(=O)N[C@@H]1C(=O)NCC(=O)N[C@@H](CCCN)C(=O)N[C@@H](CC(=O)O)C(=O)N[C@H](C)C(=O)N[C@@H](C)C(=O)NCC(=O)N[C@H](CO)C(=O)N[C@@H]([C@@H](C)CC(=O)O)C(=O)N[C@@H](CC(=O)c2ccccc2N)C(=O)O[C@@H]1C | ≥ 64 µg/mL | ≥ 64 µg/mL | ≥ 64 µg/mL | ≥ 64 µg/mL | ≥ 64 µg/mL | ≥ 64 µg/mL | ≥ 64 µg/mL | ≥ 64 µg/mL | ≥ 64 µg/mL |
| CCCCCCCCCC(=O)N[C@@H](Cc1c[nH]c2ccccc12)C(=O)N[C@@H](CC(N)=O)C(=O)N[C@@H](CC(=O)O)C(=O)N[C@@H]1C(=O)NCC(=O)N[C@@H](Cc2ccc(O)cc2)C(=O)N[C@@H](CC(=O)O)C(=O)N[C@H](C)C(=O)N[C@@H](CC(=O)O)C(=O)NCC(=O)N[C@H](CO)C(=O)N[C@@H]([C@@H](C)CC(=O)O)C(=O)N[C@@H](CC(=O)c2ccccc2N)C(=O)O[C@@H]1C | 16 µg/mL | 0.5 µg/mL | 4 µg/mL | ≥ 32 µg/mL | 1 µg/mL | 1 µg/mL | ≥ 32 µg/mL | ≥ 32 µg/mL | 4 µg/mL |
| C[C@H]1NC(=O)[C@H](CC(=O)O)NC(=O)[C@H](CCCN)NC(=O)CNC(=O)[C@@H](NC(=O)[C@H](CC(=O)O)NC(=O)[C@H](CC(N)=O)NC(=O)[C@H](Cc2c[nH]c3ccccc23)NC(=O)c2ccc(C#CC#Cc3ccccc3)cc2)[C@@H](C)OC(=O)[C@H](CC(=O)c2ccccc2N)NC(=O)[C@H]([C@@H](C)CC(=O)O)NC(=O)[C@@H](CO)NC(=O)CNC(=O)[C@H](CC(=O)O)NC1=O | 1 µg/mL | 0.5 µg/mL | 0.5 µg/mL | 1 µg/mL | 0.5 µg/mL | 1 µg/mL | 1 µg/mL | 4 µg/mL | 0.5 µg/mL |
| CCCCCCCCCC(=O)N[C@@H](Cc1c[nH]c2ccccc12)C(=O)N[C@@H](CC(N)=O)C(=O)N[C@@H](CC(=O)O)C(=O)N[C@@H]1C(=O)NCC(=O)N[C@@H](Cc2ccccc2)C(=O)N[C@@H](CC(=O)O)C(=O)N[C@H](C)C(=O)N[C@@H](CC(=O)O)C(=O)NCC(=O)N[C@H](CO)C(=O)N[C@@H]([C@@H](C)CC(=O)O)C(=O)N[C@@H](CC(=O)c2ccccc2N)C(=O)O[C@@H]1C | ≥ 32 µg/mL | ≥ 32 µg/mL | 16 µg/mL | ≥ 32 µg/mL | 16 µg/mL | ≥ 32 µg/mL | ≥ 32 µg/mL | ≥ 32 µg/mL | 16 µg/mL |
| CCCCCCCCCC(=O)N[C@@H](Cc1c[nH]c2ccccc12)C(=O)N[C@@H](CC(N)=O)C(=O)N[C@@H](CC(=O)O)C(=O)N[C@@H]1C(=O)NCC(=O)N[C@@H](CCC(=O)O)C(=O)N[C@@H](CC(=O)O)C(=O)N[C@H](C)C(=O)N[C@@H](CC(=O)O)C(=O)NCC(=O)N[C@H](CO)C(=O)N[C@@H]([C@@H](C)CC(=O)O)C(=O)N[C@@H](CC(=O)c2ccccc2N)C(=O)O[C@@H]1C | ≥ 32 µg/mL | ≥ 32 µg/mL | 16 µg/mL | ≥ 32 µg/mL | 16 µg/mL | ≥ 32 µg/mL | ≥ 32 µg/mL | ≥ 32 µg/mL | ≥ 32 µg/mL |
| CCCCCCCCCC(=O)N[C@@H](Cc1c[nH]c2ccccc12)C(=O)N[C@@H](CC(N)=O)C(=O)N[C@@H](CC(=O)O)C(=O)N[C@@H]1C(=O)NCC(=O)NCC(=O)N[C@@H](CC(=O)O)C(=O)N[C@H](C)C(=O)N[C@@H](CC(=O)O)C(=O)NCC(=O)N[C@H](CO)C(=O)N[C@@H]([C@@H](C)CC(=O)O)C(=O)N[C@@H](CC(=O)c2ccccc2N)C(=O)O[C@@H]1C | ≥ 32 µg/mL | ≥ 32 µg/mL | ≥ 32 µg/mL | ≥ 32 µg/mL | ≥ 32 µg/mL | ≥ 32 µg/mL | ≥ 32 µg/mL | ≥ 32 µg/mL | ≥ 32 µg/mL |
| CCCCCCCCCC(=O)N[C@@H](Cc1c[nH]c2ccccc12)C(=O)N[C@@H](CC(N)=O)C(=O)N[C@@H](CC(=O)O)C(=O)N[C@@H]1C(=O)NCC(=O)N[C@@H](CC(C)C)C(=O)N[C@@H](CC(=O)O)C(=O)N[C@H](C)C(=O)N[C@@H](CC(=O)O)C(=O)NCC(=O)N[C@H](CO)C(=O)N[C@@H]([C@@H](C)CC(=O)O)C(=O)N[C@@H](CC(=O)c2ccccc2N)C(=O)O[C@@H]1C | 16 µg/mL | 0.5 µg/mL | 2 µg/mL | ≥ 32 µg/mL | 4 µg/mL | 1 µg/mL | ≥ 32 µg/mL | ≥ 32 µg/mL | 4 µg/mL |
| CCCCCCCCCC(=O)N[C@@H](Cc1c[nH]c2ccccc12)C(=O)N[C@@H](CC(N)=O)C(=O)N[C@@H](CC(=O)O)C(=O)N[C@@H]1C(=O)NCC(=O)N[C@@H](CCCN)C(=O)N[C@@H](CCC(=O)O)C(=O)N[C@H](C)C(=O)N[C@@H](CCC(=O)O)C(=O)NCC(=O)N[C@H](CO)C(=O)N[C@@H]([C@@H](C)CC(=O)O)C(=O)N[C@@H](CC(=O)c2ccccc2N)C(=O)O[C@@H]1C | ≥ 32 µg/mL | ≥ 32 µg/mL | ≥ 32 µg/mL | ≥ 32 µg/mL | ≥ 32 µg/mL | ≥ 32 µg/mL | ≥ 32 µg/mL | ≥ 32 µg/mL | ≥ 32 µg/mL |
| C[C@H]1NC(=O)[C@H](CC(=O)O)NC(=O)[C@H](CCCN)NC(=O)CNC(=O)[C@@H](NC(=O)[C@H](CC(=O)O)NC(=O)[C@H](CC(N)=O)NC(=O)[C@H](Cc2c[nH]c3ccccc23)NC(=O)c2ccc(C#Cc3ccc(-c4ccccc4)cc3)cc2)[C@@H](C)OC(=O)[C@H](CC(=O)c2ccccc2N)NC(=O)[C@H]([C@@H](C)CC(=O)O)NC(=O)[C@@H](CO)NC(=O)CNC(=O)[C@H](CC(=O)O)NC1=O | 2 µg/mL | 1 µg/mL | 1 µg/mL | 0.5 µg/mL | 2 µg/mL | 1 µg/mL | 2 µg/mL | 0.5 µg/mL | 2 µg/mL |
| CCCCCCCCCC(=O)N[C@@H](Cc1c[nH]c2ccccc12)C(=O)N[C@@H](CC(N)=O)C(=O)N[C@@H](CC(=O)O)C(=O)N[C@@H]1C(=O)NCC(=O)N[C@@H](CCCN)C(=O)N[C@@H](CC(=O)O)C(=O)N[C@@H](C)C(=O)N[C@@H](CC(=O)O)C(=O)NCC(=O)N[C@H](CO)C(=O)N[C@@H]([C@@H](C)CC(=O)O)C(=O)N[C@@H](CC(=O)c2ccccc2N)C(=O)O[C@@H]1C | ≥ 64 µg/mL | ≥ 64 µg/mL | ≥ 64 µg/mL | ≥ 64 µg/mL | ≥ 64 µg/mL | ≥ 64 µg/mL | ≥ 64 µg/mL | ≥ 64 µg/mL | ≥ 64 µg/mL |
